In patent publication US20250205158A1, “BIODEGRADABLE LIPIDS AND FORMULATIONS FOR DELIVERY OF MRNA” (Massachusetts Institute of Technology, priority 2023, published 2025):

Tests used:
mice = conditions: FLuc expression in liver and spleen 6 hours after IM injection
Method: Evaluation of the LNPs via intramuscular injection. The in vivo potency of the ionizable lipids was screened through intramuscular injection of LNPs loaded with mRNA encoding firefly luciferase protein. These LNPs were formulated with a molar composition of (35:16:46.5:2.5) using one of the synthesized ionizable lipids, DOPE as a helper lipid, cholesterol, and DMPE-PEG respectively. mRNA-loaded LNPs were intramuscularly administered in mice at a dose of 1 μg, and expression of luciferase protein was monitored at 6 hours via IVIS bioluminescent imaging (FIG. 3). […] Without wishing to be bound by theory, increased levels of protein expression may enhance the response to vaccination.
In Vitro and In Vivo Screening of AMG Lipid Library. Following synthesis, the mRNA delivery efficacy of the AMG lipids was evaluated through both in vitro and in vivo screens. To screen the first generation of AMG lipids (FIGS. 11B and 11C), firefly luciferase (FLuc) mRNA was encapsulated into LNPs using a previously reported formulation containing ionizable lipid, 1,2-dioleoyl-sn-glycero-3-phosphoethanolamine (DOPE), cholesterol, and 1,2-dimyristoyl-rac-glycero-3-methoxypolyethylene glycol-2000 (DMG-PEG).^19 C2C12 myoblast cells were treated with these LNPs and FLuc expression was evaluated at 24 hrs. (FIG. 16). […] Each of these batches was then injected IM into the quadriceps of mice, and expression was characterized via IVIS imaging (Screen 1, FIG. 11E).
AMG lipids for enhanced mRNA delivery and improved tolerability. A rational design approach was used to further vary the ionizable lipid structure to enhance the mRNA delivery and immunogenicity. […] The lipid tail structure was varied to promote efficient LNP self-assembly while simultaneously promoting endosomal membrane disruption.^18 Monounsaturated (G41-G44) or fully saturated (GC12-GC18) lipid tails were developed. […] Without wishing to be bound by any particular theory, tail length may impact membrane fusion and endosomal escape.^10,11
Next, the headgroup was further modified to further improve delivery. Headgroups play a multifunctional role including enhancing LNP-mRNA interactions, promoting membrane-LNP fusion and endosomal escape which all contribute to mRNA delivery.^23 A series of similar aza-crown ethers were used to further investigate structure-activity relationship and enhance mRNA delivery. These headgroups featured between three and eight nitrogens linked by varying length of methylene chains. Each of these headgroups were reacted with tail G41 to synthesize a next generation of AMG lipids, which were then formulated with FLuc mRNA and evaluated for mRNA delivery following IM administration in mice (FIG. 12B).

[1] = tested on: influenza A/Tasmania/503/2020 virus; assay: Hemagglutination inhibition (HAI) assay, neutralizing antibody titers after HA mRNA vaccination; format: in vivo, BALB/cJ mice; conditions: female BALB/cJ mice, dose-response vaccination
Method: To test this, a dose-response vaccination experiment ranging from […] was performed in female BALB/cJ mice. Neutralizing antibody titers were evaluated using the hemagglutination inhibition (HAI) assay. HAI titers are strongly correlated with vaccine protection and the assay is an FDA approved method for testing influenza vaccine efficacy^38,39 In agreement with the binding antibody titers, higher neutralizing […] were measured across all three tested doses: SM-102 only gave detectable neutralizing immunity at a 1 μg dose, while AMG1541 gave neutralizing immunity with as little was 10 ng of mRNA (FIG. 13H). Not only was AMG1541 able to generate neutralizing immunity at a very low dose, the binding and neutralizing antibody titers were equivalent in mice vaccinated with AMG1541 at a […] as those with SM-102 at a […] (FIG. 13H).
HAI Assay. HAI assays were performed by IBT bioservices. Viral titers were standardized by defining one HA unit as the amount of inactivated influenza A/Tasmania/503/2020 virus required to completely hemagglutinate an equal volume of 1% turkey red blood cells (TRBCs) (Lampire). Serum was heat inactivated at 56° C. then receptor destroying enzyme (RDE) (DENKA) was added to the serum and incubated at 37° C. for 20 hrs. RDE was then deactivated at 56° C. for 60 mins. Serum samples were then serially diluted in DPBS and 25 μL of diluted serum was added to a 96-well V bottom plate. Subsequently, four HA units of inactivated virus in 25 μL of DPBS were added to the diluted serum and incubated for 30 mins. at RT. 50 μL of a 1% (4×10^7 cells/mL) solution of turkey red blood cells (Lampire) was then added to the serum and virus mixture.

[2] = in vivo; cited from earlier work
[3] = Ethanol solubility of ionizable lipids; format: physicochemical
Excerpt: AMG lipids for enhanced mRNA delivery and improved tolerability.

| Compound | fold higher mRNA transfection in the liver and spleen compared to AMG1541 (mice) [fold] | dose giving detectable neutralizing immunity [1] [µg] | time SM-102 remained detectable at the injection site [2] | time SM-102 remained detectable in the liver and spleen [2] | ethanol solubility [3] |
| --- | --- | --- | --- | --- | --- |
| CCCCCCCCCCCOC(=O)CCCCCN(CCO)CCCCCCCC(=O)OC(CCCCCCCC)CCCCCCCC [SM-102, reference compound] | ~100 | 1 | at least 48 hours | at least 10 hours |  |
| CCCCCCCCCCCCCC(=O)OCC(O)CN1CCCN(CC(O)COC(=O)CCCCCCCCCCCCC)CCN(CC(O)COC(=O)CCCCCCCCCCCCC)CCCN(CC(O)COC(=O)CCCCCCCCCCCCC)CC1 (mixture of isomers) [AMG10C14] |  |  |  |  | poor ethanol solubility |
